From PubChem BioAssay AID179 (DTP/NCI, 2004)
Active and inactive are the calls of the source.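 How the source made its calls: active means compounds giving half or more protection of infected cells from virus-caused growth loss, again on retest; inactive means the rest.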

Test system: CEM cells HIV-1 protection, formazan growth assay
Experiment: NCI AIDS Antiviral Assay
Settings: for IC50: measured here: growth of uninfected CEM cells
In short: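 Five concentrations of each compound were applied to infected and uninfected human CEM cells. Protection from HIV-1 was judged from growth measured with a soluble formazan assay.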

COc1c(Br)cc(/C=C(\C#N)c2ccccn2)cc1Br showed an EC50 of over 100 µM and an IC50 of over 100 µM.

COC(=O)NC(Nc1ccccn1)(C(F)(F)F)C(F)(F)F was tested, and the EC50 was over 200 µM and the IC50 was over 200 µM.

N#C/C=C\c1ccc(Cl)cc1 showed an EC50 of over 43.7 µM and an IC50 of over 43.7 µM.

Work on Cc1cn(C2CC(Sc3ccccn3)C(CO)O2)c(=O)[nH]c1=O (configuration not stated) yielded an EC50 of over 372 µM and an IC50 of 316 µM.

With C(=C/c1nc2ccccc2o1)/c1ccc2c(c1)OCO2 the EC50 was over 10.2 µM and the IC50 was over 10.2 µM.

CCOC(=O)C1=C(O)CC(=O)N=C1N1CCCC1 showed an EC50 of over 200 µM and an IC50 of over 200 µM.

In the case of COc1ccc(CNc2nc3c(NC(C)=O)cc(C(F)(F)F)cc3nc2-c2ccccc2)cc1OC, the EC50 is reported as over 10.5 µM and the IC50 is reported as over 10.5 µM.

For CC(=O)Nc1cccc(N2C(=O)/C(=C\c3cccc(Oc4ccccc4)c3)S(=O)(=O)C2c2ccccc2)c1 (configuration not stated), the EC50 was over 200 µM and the IC50 was 34.7 µM.

Compound COc1cc2c(c(OC)c1OC)[C@@H]1CCCCC[C@@H]1CCC2=O has an EC50 of over 251 µM and an IC50 of 112 µM.

For O=S(=O)(c1ccccc1)N1CC2(CN(S(=O)(=O)c3ccccc3)c3ccccc31)CN(S(=O)(=O)c1ccccc1)c1ccccc1N(S(=O)(=O)c1ccccc1)C2, the EC50 was over 200 µM and the IC50 was over 200 µM.

For CN(C)Cc1cc(C(=O)/C=C/c2c(F)cccc2Cl)cc(CN(C)C)c1O, the EC50 was over 20 µM and the IC50 was 4.68 µM.

Work on N#CC1C(=O)C(=O)N(c2ccccc2)C1=O (configuration not stated) yielded an EC50 of over 33.9 µM and an IC50 of over 33.9 µM.

CCCCCOP(=O)(OCCCCC)C(NC(C)=O)(C(=O)OCC)C(F)(F)F (configuration not stated) showed an EC50 of over 200 µM and an IC50 of 110 µM.

CN1CCC23c4ccccc4NC1C21CCN(C)C3Nc2ccccc21 gave an EC50 of over 724 µM and an IC50 of 617 µM.

In the case of CC1C(c2ccccc2)=CCON1c1ccccc1 (configuration not stated), the EC50 is reported as over 75.9 µM and the IC50 is reported as over 75.9 µM.

Work on Nc1ncnc2c1ncn2COC/C=C/I yielded an EC50 of over 204 µM and an IC50 of 155 µM.

Work on COc1ccc(-n2cnn3c(=O)c4cn[nH]c4nc23)cc1 yielded an EC50 of over 200 µM and an IC50 of over 200 µM.

CC1(C)N=C(/C(Cl)=[N+](/[O-])C(=O)c2ccc(Cl)cc2)C(C)(C)N1O gave an EC50 of over 100 µM and an IC50 of 8.91 µM.

Compound O=C(O)c1ccc2c3c(n[se]c13)-c1ccccc1C2=O has an EC50 of over 8.32 µM and an IC50 of over 8.32 µM.

CC12C(=O)NC(c3ccncc3)(c3ccccc31)C1C(=O)N(c3ccccc3)C(=O)C12 (configuration not stated) showed an EC50 of over 200 µM and an IC50 of 191 µM.

C=CC/C=C/C/C=C/CCCCCCCc1cccc(O)c1C(=O)O showed an EC50 of over 105 µM and an IC50 of 56.2 µM.

Cn1c(=O)c2ccccc2[n+]2c(-c3cccc([N+](=O)[O-])c3)csc12 showed an EC50 of over 200 µM and an IC50 of 148 µM.

For CC#N.CC#N.COC(=O)[C@H]1CCC(=O)[N-]1.COC(=O)[C@H]1CCC(=O)[N-]1.COC(=O)[C@H]1CCC(=O)[N-]1.COC(=O)[C@H]1CCC(=O)[N-]1.[Rh+2].[Rh+2], the EC50 was over 200 µM and the IC50 was over 200 µM.

In the case of CN(C)C1CCC2(CC1)OCCO2, the outcome is reported as “inactive”.

CCOC(=O)C1=CC(C)(C(=O)OCC)Nc2c(nc(N)[nH]c2=O)N1 (configuration not stated) gave an EC50 of 138 µM and an IC50 of over 200 µM.

CCCCCC(/C=C/C1CCC(=O)C1)OCOCCOC (configuration not stated) showed an EC50 of over 200 µM and an IC50 of 18.2 µM.

For CCCCCCCCCCCCN1C=C(C(N)=O)C(S(=O)(=O)O)c2ccccc21 (configuration not stated), the EC50 was 6.61 µM and the IC50 was 25.1 µM.

O=C1CCCCC1C(O)(C(F)(F)F)C(F)(F)Cl (configuration not stated) was tested, and the EC50 was over 200 µM and the IC50 was 85.1 µM.

For CN(C)/C=C\c1c([N+](=O)[O-])ncn1C, the EC50 was over 200 µM and the IC50 was over 200 µM.

For O=C(O)CN(CCN(CC(=O)O)CC(=O)O)CC(=O)O.[Ni+2], the EC50 was over 200 µM and the IC50 was over 200 µM.

Compound S=c1ncnc2cc3[nH][nH]cc3cc12 has an EC50 of over 67.6 µM and an IC50 of 49 µM.

CCOC(=O)/C(=C\c1ccc(C(F)(F)F)cc1)[Se]c1ccccc1 was tested, and the EC50 was over 18.2 µM and the IC50 was over 18.2 µM.

COc1ccc(S(=O)(=O)N/N=C(\C)CN2C(=O)c3ccccc3C2=O)cc1OC was tested, and the EC50 was over 437 µM and the IC50 was over 437 µM.

O=C1NCN(c2ccccc2)C12CCN(Cc1ccccc1)CC2 showed an EC50 of over 200 µM and an IC50 of over 200 µM.

Cc1cc(CN(Cc2ccccc2)Cc2nc3ccccc3[nH]2)c(O)c(CN(Cc2nc3ccccc3[nH]2)Cc2nc3ccccc3[nH]2)c1 gave an EC50 of over 200 µM and an IC50 of 24.5 µM.

For CS(=O)(=O)CC(Cc1ccccc1)C(=O)O (configuration not stated), the outcome was “inactive”.

O=C1Nc2ccccc2N2C(=O)CCC12 (configuration not stated) showed an EC50 of over 1230 µM and an IC50 of 617 µM.

CC(C)C(NC(=O)c1ccccc1SC(=O)CCCC[n+]1ccccc1)C(N)=O (configuration not stated) was tested, and the EC50 was 1.05 µM and the IC50 was 8.71 µM.

For Cc1nc(Nc2ccc(Cl)c(Cl)c2)sc1C(=O)/C=C/c1ccc2c(c1)OCO2, the EC50 was over 200 µM and the IC50 was 13.5 µM.

With N#CCCC1(CCC#N)CCCCCCC(CCC#N)(CCC#N)C(O)C1O (configuration not stated) the EC50 was over 200 µM and the IC50 was over 200 µM.

With Nc1nc(Cl)cc(NCC2(O)CCC2)n1 the EC50 was over 200 µM and the IC50 was over 200 µM.

COc1cc2ccc(=O)oc2cc1O showed an EC50 of over 339 µM and an IC50 of 55 µM.
